Assay type in all cases: biochemical
Assay [1] has as its target T1, PI3Kδ (Homo sapiens, UniProt O00329).
T1 construct: His tag (C); made in house; host or cells: Tn5 insect cells, baculovirus BV1060 (vector LR415)
The assay can be described thus: PI3K KinaseGlo assay, PI3Kdelta. As to conditions: 10 nM enzyme, 1 μM ATP, 30 mins. In general terms: Kinase-Glo measures the ATP left after a reaction by luminescence.

For assay [2], the target named is T2, PI3Kβ (Homo sapiens, UniProt P42338).
T2 construct: His tag (C); made in house; host or cells: Tn5 insect cells, baculovirus BV949 (vector LR280)
T2 sequence (P42338 with tags, fused parts or gaps): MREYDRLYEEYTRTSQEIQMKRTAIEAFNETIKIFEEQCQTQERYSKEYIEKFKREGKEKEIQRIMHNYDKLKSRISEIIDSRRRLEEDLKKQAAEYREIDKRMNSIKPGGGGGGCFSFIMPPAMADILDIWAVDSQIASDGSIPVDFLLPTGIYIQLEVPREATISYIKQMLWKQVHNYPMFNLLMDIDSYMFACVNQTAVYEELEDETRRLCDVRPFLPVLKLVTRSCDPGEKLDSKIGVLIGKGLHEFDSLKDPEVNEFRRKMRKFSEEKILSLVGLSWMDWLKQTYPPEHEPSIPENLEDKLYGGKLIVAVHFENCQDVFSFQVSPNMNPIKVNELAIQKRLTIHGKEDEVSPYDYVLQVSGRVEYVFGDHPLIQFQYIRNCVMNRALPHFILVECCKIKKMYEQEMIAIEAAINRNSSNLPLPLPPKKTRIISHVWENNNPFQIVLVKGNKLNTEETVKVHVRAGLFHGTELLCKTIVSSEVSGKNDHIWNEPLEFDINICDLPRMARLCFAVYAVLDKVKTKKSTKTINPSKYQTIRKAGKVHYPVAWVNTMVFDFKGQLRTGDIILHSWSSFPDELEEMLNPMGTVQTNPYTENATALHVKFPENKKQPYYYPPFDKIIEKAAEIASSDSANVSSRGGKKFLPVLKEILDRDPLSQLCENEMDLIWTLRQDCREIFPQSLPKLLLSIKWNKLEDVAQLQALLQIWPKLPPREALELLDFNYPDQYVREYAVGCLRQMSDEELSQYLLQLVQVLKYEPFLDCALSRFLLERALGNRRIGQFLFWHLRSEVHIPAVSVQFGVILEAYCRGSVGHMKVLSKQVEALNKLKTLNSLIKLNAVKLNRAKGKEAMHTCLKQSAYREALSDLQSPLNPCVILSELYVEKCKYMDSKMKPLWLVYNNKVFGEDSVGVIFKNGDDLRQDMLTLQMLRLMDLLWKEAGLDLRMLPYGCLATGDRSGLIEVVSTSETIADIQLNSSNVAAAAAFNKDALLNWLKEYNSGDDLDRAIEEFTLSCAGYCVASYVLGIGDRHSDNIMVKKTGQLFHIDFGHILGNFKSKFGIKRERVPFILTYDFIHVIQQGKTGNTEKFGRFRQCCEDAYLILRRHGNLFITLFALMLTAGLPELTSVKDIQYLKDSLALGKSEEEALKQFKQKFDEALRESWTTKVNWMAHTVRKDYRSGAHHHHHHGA
The assay can be described thus: PI3K KinaseGlo assay, PI3Kbeta. Conditions: 25 nM enzyme, 1 μM ATP, 30 mins.

Assay [3] deals with T3, PI3Kγ (Homo sapiens, UniProt P48736, Q459R).
T3 construct: Constructs lacking the N-terminal 144 aa; His tag (C); made in house; host or cells: Tn5 insect cells, baculovirus BV950; construct from the Roger Williams lab (MRC LMB)
T3 sequence (P48736 with tags, fused parts or gaps Q459R): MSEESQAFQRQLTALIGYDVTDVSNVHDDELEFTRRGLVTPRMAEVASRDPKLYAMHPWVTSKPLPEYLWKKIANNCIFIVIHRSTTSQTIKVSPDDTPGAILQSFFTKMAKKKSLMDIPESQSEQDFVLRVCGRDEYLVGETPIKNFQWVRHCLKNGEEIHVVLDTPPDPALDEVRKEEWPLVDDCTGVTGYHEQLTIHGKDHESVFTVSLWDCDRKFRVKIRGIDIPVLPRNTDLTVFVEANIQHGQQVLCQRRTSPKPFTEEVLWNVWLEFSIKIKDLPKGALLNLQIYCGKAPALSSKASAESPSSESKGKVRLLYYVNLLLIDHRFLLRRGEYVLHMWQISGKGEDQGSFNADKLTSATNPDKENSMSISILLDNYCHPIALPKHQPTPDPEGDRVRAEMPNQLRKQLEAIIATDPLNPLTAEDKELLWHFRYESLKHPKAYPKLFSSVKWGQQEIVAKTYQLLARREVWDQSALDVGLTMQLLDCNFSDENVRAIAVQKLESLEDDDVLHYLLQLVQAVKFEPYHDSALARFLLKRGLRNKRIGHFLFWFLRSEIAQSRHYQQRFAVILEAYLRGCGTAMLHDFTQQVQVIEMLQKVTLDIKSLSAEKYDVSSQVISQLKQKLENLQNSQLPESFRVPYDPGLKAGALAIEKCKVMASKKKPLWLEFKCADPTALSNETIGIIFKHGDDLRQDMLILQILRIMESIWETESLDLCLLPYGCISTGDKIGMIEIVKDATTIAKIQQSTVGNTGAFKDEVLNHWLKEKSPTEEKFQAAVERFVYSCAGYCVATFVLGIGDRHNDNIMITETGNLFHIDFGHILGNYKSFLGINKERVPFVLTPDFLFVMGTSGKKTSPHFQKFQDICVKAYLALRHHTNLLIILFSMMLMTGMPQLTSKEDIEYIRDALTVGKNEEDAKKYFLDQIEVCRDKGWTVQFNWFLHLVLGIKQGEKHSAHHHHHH
The assay can be described thus: PI3K KinaseGlo assay, PI3Kgamma. As to conditions: 150 nM enzyme, 1 μM ATP, 90 mins.

The target in assay [4] is T4, PI3Kα (Homo sapiens, UniProt P42336).
T4 construct: His tag (C); made in house; host or cells: Tn5 insect cells, baculovirus BV-1075
T4 sequence (P42336 with tags, fused parts or gaps): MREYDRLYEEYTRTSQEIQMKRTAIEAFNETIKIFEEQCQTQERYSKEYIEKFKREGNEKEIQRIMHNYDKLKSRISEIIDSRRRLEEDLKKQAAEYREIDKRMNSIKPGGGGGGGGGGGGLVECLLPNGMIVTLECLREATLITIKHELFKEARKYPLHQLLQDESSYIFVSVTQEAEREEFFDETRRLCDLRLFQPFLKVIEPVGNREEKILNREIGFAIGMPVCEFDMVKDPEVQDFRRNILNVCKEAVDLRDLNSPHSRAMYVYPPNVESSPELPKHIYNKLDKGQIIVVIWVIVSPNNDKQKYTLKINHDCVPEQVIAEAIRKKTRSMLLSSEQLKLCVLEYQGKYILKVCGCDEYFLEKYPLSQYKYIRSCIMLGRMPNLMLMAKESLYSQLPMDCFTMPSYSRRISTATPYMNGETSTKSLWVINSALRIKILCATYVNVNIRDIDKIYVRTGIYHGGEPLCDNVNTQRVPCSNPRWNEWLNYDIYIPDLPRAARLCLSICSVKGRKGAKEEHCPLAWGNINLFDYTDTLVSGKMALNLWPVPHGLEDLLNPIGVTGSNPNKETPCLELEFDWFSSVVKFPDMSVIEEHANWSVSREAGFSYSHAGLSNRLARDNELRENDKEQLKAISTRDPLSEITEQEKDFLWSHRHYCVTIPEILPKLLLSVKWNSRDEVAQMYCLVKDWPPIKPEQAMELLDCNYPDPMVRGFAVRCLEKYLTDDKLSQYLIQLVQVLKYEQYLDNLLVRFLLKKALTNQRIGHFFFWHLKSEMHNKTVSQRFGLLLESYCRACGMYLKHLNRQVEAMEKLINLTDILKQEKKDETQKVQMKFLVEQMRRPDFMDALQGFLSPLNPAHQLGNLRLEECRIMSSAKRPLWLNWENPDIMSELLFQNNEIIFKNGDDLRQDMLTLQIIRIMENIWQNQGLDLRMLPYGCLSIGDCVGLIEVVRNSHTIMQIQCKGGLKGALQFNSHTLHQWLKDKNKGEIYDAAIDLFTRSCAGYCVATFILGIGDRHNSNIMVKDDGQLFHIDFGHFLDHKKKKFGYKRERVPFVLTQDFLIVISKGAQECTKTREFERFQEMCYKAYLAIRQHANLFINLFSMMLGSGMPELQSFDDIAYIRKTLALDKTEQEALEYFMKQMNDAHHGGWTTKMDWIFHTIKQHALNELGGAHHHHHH
The assay can be described thus: PI3K KinaseGlo assay, PI3Kalpha. As to conditions: 10 nM enzyme, 1 μM ATP, 30 mins.

As a reminder, the IC50 is the point on the concentration scale where inhibition reaches its midpoint.

T1 sequence (O00329 with tags, fused parts or gaps): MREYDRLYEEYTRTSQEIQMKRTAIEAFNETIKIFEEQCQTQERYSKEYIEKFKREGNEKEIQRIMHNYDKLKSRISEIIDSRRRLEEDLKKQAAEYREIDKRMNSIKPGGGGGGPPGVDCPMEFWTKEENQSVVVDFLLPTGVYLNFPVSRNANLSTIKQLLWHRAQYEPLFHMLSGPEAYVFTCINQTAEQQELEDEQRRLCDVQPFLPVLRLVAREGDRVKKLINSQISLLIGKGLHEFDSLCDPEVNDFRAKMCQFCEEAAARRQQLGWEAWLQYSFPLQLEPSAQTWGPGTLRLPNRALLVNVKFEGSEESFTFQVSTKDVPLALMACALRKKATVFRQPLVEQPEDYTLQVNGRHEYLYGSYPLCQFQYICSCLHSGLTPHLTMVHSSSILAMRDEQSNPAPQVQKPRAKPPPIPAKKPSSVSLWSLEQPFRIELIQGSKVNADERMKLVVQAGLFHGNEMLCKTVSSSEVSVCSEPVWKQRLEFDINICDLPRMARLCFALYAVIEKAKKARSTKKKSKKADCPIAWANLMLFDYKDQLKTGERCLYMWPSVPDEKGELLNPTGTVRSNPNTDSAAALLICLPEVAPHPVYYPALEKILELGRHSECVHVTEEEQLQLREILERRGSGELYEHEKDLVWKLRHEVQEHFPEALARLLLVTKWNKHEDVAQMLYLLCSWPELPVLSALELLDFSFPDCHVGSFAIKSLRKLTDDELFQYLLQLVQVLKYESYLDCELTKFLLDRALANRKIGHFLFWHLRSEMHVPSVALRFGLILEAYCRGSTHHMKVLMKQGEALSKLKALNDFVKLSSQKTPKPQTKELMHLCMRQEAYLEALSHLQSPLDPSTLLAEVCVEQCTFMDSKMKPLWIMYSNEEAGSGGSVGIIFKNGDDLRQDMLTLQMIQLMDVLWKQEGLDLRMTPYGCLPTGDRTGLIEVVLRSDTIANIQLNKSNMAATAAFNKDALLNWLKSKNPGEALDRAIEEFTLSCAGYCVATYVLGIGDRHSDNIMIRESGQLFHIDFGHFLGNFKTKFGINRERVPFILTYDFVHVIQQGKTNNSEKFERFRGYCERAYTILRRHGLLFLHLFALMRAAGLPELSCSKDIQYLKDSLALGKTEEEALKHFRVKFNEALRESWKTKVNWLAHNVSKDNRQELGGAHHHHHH

`CCN(CC)c1ncc2c(n1)-c1sc(NC(=O)N3CC[C@@H]4C[C@@]43C(N)=O)nc1CC2` [Example 19, (1S,5R)-2-Aza-bicyclo[3.1.0]hexane-1,2-dicarboxylic acid 1-amide 2-[(8-diethylamino-4,5-dihydro-thiazolo[4,5-h]quinazolin-2-yl)-amide]]: the half-maximal inhibitory concentration (IC50) was 0.077 µM in assay [1], 0.588 µM in assay [2], 0.123 µM in assay [3] and 0.0055 µM in assay [4].
For the compound `CCN(CC)c1ncc2c(n1)-c1sc(NC(=O)N3CC[C@@H](C)[C@H]3C(N)=O)nc1CC2` [Example 21, (2S,3R)-3-Methyl-pyrrolidine-1,2-dicarboxylic acid 2-amide 1-[(8-diethylamino-4,5-dihydro-thiazolo[4,5-h]quinazolin-2-yl)-amide]], the IC50 in assay [1] is 0.036 µM; in assay [2], 0.519 µM; in assay [3], 0.237 µM; in assay [4] it was less than 0.003 µM.
For `CCN(CC)c1ncc2c(n1)-c1sc(NC(=O)N3C[C@@H](N(C)C)C[C@H]3C(N)=O)nc1CC2` [Example 22, (2S,4S)-4-Dimethylamino-pyrrolidine-1,2-dicarboxylic acid 2-amide 1-[(8-diethylamino-4,5-dihydro-thiazolo[4,5-h]quinazolin-2-yl)-amide]], in that order: 1.9 µM, 6.91 µM, 0.262 µM and 0.0235 µM.
As for `CC(C)(C)c1ncc2c(n1)-c1sc(NC(=O)N3CCC3C(N)=O)nc1CC2` (centres unmarked) [Example 24, Azetidine-1,2-dicarboxylic acid 2-amide 1-[(8-tert-butyl-4,5-dihydro-thiazolo[4,5-h]quinazolin-2-yl)-amide]], the IC50 was 0.024 µM in assay [1], 0.135 µM in assay [2], 0.098 µM in assay [3] and 0.007 µM in assay [4].
For `CC(C)(C)c1ncc2c(n1)-c1sc(NC(=O)N3CC[C@H]3C(N)=O)nc1CC2` [Example 25, (S)-Azetidine-1,2-dicarboxylic acid 2-amide 1-[(8-tert-butyl-4,5-dihydro-thiazolo[4,5-h]quinazolin-2-yl)-amide]], in that order: 0.045 µM, 0.346 µM, 0.122 µM and 0.0055 µM.
On the same counts, the results for `CCN(CC)c1ncc2c(n1)-c1sc(NC(=O)N3C[C@@H](O)C[C@H]3C(N)=O)nc1CC2` [Example 26, (2S,4S)-4-Hydroxy-pyrrolidine-1,2-dicarboxylic acid 2-amide 1-[(8-diethylamino-4,5-dihydro-thiazolo[4,5-h]quinazolin-2-yl)-amide]] are 0.058 µM, 0.328 µM, 0.138 µM and 0.0065 µM.
On the same counts, the results for `CCN(CC)c1ncc2c(n1)-c1sc(NC(=O)N3C[C@H](O)C[C@H]3C(N)=O)nc1CC2` [Example 27, (2S,4R)-4-Hydroxy-pyrrolidine-1,2-dicarboxylic acid 2-amide 1-[(8-diethylamino-4,5-dihydro-thiazolo[4,5-h]quinazolin-2-yl)-amide]] are 0.072 µM, 0.397 µM, 0.097 µM and 0.0045 µM.
On to `CC(C)(C)c1nc2c(s1)CCc1nc(NC(=O)N3CC[C@H]3C(N)=O)sc1-2` [Example 30, (S)-Azetidine-1,2-dicarboxylic acid 2-amide 1-[(7-tert-butyl-4,5-dihydro-benzo[1,2-d;3,4-d′]bisthiazol-2-yl)-amide]], for which the IC50 is 0.294 µM in assay [1], 2.14 µM in assay [2], 0.119 µM in assay [3] and 0.023 µM in assay [4].
For `CN(C)[C@@H]1C[C@@H](C(N)=O)N(C(=O)Nc2nc3c(s2)-c2nc(C(C)(C)C)sc2CC3)C1` [Example 31, (2S,4R)-4-Dimethylamino-pyrrolidine-1,2-dicarboxylic acid 2-amide 1-[(7-tert-butyl-4,5-dihydro-benzo[1,2-d;3,4-d′]bisthiazol-2-yl)-amide]], in that order: 1.94 µM, 5.83 µM, 1.23 µM and 0.0515 µM.
On the same counts, the results for `CC(C)(CF)c1nc2c(s1)CCc1nc(NC(=O)N3CCC[C@H]3C(N)=O)sc1-2` [Example 32, (S)-Pyrrolidine-1,2-dicarboxylic acid 2-amide 1-{[7-(2-fluoro-1,1-dimethyl-ethyl)-4,5-dihydro-benzo[1,2-d;3,4-d′]bisthiazol-2-yl]-amide}] are 0.043 µM, 1.09 µM, 0.131 µM and 0.007 µM.
For “(R)-2-Benzyl-pyrrolidine-1,2-dicarboxylic acid 2-amide 1-[(8-diethylamino-4,5-dihydro-thiazolo[4,5-h]quinazolin-2-yl)-amide] [Example 3]”, in that order: 0.74 µM, 0.127 µM, 1.59 µM and 0.045 µM.

(Values after US8357707B2, “2-carboxamide cycloamino ureas” (Novartis AG, priority 2009, dated 2013).)
